These results are taken from US11524966B1 (Valo Early Discovery, Inc., priority 2017, dated 2022).

Bounds are passed on as bounds.

In this assay the target is T1, USP25 (USP25-His6, Boston Biochem E-546) (Homo sapiens, UniProt Q9UHP3).
T1 construct: His6; purchased Boston Biochem E-546
T1 sequence (Q9UHP3 1-1055): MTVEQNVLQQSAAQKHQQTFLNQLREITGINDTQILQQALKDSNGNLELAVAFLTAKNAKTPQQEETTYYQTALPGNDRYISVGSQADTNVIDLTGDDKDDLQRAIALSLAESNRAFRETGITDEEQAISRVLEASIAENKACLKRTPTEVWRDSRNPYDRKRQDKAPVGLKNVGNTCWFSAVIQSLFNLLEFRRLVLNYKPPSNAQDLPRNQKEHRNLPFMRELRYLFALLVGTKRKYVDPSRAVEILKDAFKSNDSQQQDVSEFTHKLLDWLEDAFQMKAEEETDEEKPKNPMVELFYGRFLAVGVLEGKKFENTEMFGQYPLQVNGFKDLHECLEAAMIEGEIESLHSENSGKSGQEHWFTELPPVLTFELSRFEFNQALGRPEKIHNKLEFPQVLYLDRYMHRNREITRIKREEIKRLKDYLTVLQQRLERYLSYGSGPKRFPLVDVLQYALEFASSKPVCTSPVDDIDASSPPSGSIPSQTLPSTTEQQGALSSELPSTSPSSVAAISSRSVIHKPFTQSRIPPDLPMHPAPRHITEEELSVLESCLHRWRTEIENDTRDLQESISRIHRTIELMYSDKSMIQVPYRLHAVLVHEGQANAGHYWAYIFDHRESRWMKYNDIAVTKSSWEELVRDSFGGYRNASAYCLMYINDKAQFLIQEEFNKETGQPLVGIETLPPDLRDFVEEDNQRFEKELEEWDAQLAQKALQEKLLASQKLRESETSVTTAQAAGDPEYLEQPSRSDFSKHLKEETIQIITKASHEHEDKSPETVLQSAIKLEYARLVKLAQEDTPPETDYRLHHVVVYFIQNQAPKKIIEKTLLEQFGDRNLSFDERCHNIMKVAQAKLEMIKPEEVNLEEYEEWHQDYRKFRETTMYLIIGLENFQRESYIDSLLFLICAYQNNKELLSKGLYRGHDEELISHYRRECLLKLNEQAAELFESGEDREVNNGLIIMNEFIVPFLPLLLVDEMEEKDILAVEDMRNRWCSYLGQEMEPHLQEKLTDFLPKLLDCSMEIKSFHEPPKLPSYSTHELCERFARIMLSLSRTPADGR
In words: Ubiquitin-Rhodamine 110 Assay for USP25 Activity, Example A-2. It is filed as biochemical. As to conditions: Ub-Rh110 assay, Example A-2; read-out: USP25 A-2 IC50 range. The method, then: The assay was performed in a final volume of 9 μL in assay buffer containing 20 mM Tris-HCl (pH 8.0, (1M Tris-HCl, pH 8.0 solution; Corning 46-031-CM)), 3 mM BME (2-Mercaptoethanol; Sigma 63689-25ML-F), 0.03% BGG (0.22 μM filtered, Sigma, G7516-25G), and 0.01% Triton X-100 (Sigma, T9284-10L). Nanoliter quantities of 10-point, 3-fold serial dilution in DMSO was pre-dispensed into 1536 assay plates (Corning, #3724BC) for a final test concentration of 25 μM to 1.3 nM, top to lowest dose, respectively. Enzyme USP25, construct USP25-His6, (Boston Biochem E-546). Concentration and incubation times were optimized for the maximal signal-to-background while maintaining initial velocity conditions at a fixed substrate concentration. The final concentration of the enzyme in the assay was 75 pM. Final substrate (Ub-Rh110; Ubiquitin-Rhodamine 110, R&D Systems #U-555) concentration was 25 nM with [Ub-Rh110]<<Km. 3 μL of 2× enzyme was added to assay plates (pre-stamped with compound) preincubated with […] for 30 minutes and then 3 μL of 2×Ub-Rh110 was added to assay plates. Plates were incubated for 45 minutes at room temperature before addition of 3 μL of stop solution (final concentration of 10 mM citric acid (Sigma, 251275-500G)). Fluorescence was read on the Envision (Excitation at 485 nm and Emission at 535 nm; Perkin Elmer) or on the PheraSTAR (Excitation at 485 nm and Emission at 535 nm; BMG Labtech).
IC50 values were determined by curve fitting of the standard 4 parameter logistic fitting algorithm included in the Activity Base software package: IDBS XE Designer Model 205. Data is fitted using the Levenburg Marquardt algorithm.
Turning to `Cc1cc(C)c2c(N)c(C(=O)N[C@H]3COc4cc(N5CC6CC(C5)N6)ccc4C3)sc2n1` [Example 2-18, N-((3R)-7-(3,6-diazabicyclo[3.1.1]heptan-3-yl)chroman-3-yl)-3-amino-4,6-dimethylthieno[2,3-b]pyridine-2-carboxamide], the IC50 (in general, the concentration at which inhibition is half-maximal) fell in the range of 50 to 200 nM.

For the compound `O=C(N[C@H]1COc2cc(N3CC4CCC(C3)N4)ccc2C1)c1cnc2c(c1)C1(CCN2)CC1` [Example 2-24, N-((3R)-7-(3,8-diazabicyclo[3.2.1]octan-3-yl)chroman-3-yl)-2′,3′-dihydro-1′H-spiro[cyclopropane-1,4′-[1,8]naphthyridine]-6′-carboxamide], the IC50 is 200 to 2000 nM.

Turning to `Cc1nc2sc(C(=O)N[C@H]3COc4cc(N5CC6CNCC(C5)C6(F)F)ccc4C3)c(N)c2s1` [Example 2-28, 6-amino-N-((3R)-7-(9,9-difluoro-3,7-diazabicyclo[3.3.1]nonan-3-yl)chroman-3-yl)-2-methylthieno[2,3-d]thiazole-5-carboxamide], the concentration for half-maximal inhibition (IC50) was 50 to 200 nM.

With `Cc1ccc2c(N)c(C(=O)N[C@H]3COc4cc(N5CCNCC5)c(F)cc4C3)sc2n1` [Example 1-35, (R)-3-amino-N-(6-fluoro-7-(piperazin-1-yl)chroman-3-yl)-6-methylthieno[2,3-b]pyridine-2-carboxamide], the 50% inhibitory concentration (IC50) was in the range of 200 to 2000 nM.

As for `Cc1ccc2c(N)c(C(=O)N[C@H]3COc4cc(N5CCC[C@@](N)(C(F)(F)F)C5)ccc4C3)sc2n1` (single isomer, unassigned) [Example 3-3], the IC50 lay within 50 to 200 nM.

`Cc1ccc2c(N)c(C(=O)N[C@H]3COc4cc(N5CCNCC56COC6)ccc4C3)sc2n1` [Example 2-10]: the IC50 lay in the range of 50 to 200 nM.

For the compound `Cc1ccc2c(N)c(C(=O)N[C@H]3COc4c(ccc(N5CCNCC5)c4F)C3)sc2n1` [Example 1-33, (R)-3-amino-N-(8-fluoro-7-(piperazin-1-yl)chroman-3-yl)-6-methylthieno[2,3-b]pyridine-2-carboxamide], the half-inhibitory concentration (IC50) was 50 to 200 nM.

On to `Cc1ccc2c(N)c(C(=O)N[C@H]3COc4cc(N5CCN[C@@H](C)[C@@H]5C)ccc4C3)sc2n1` (single isomer, unassigned) [Example 1-13], for which the 50% inhibitory concentration (IC50) is 200 to 2000 nM.

Turning to `Cc1cnc2c(N)c(C(=O)N[C@H]3CCc4c(ccc(N5CCNCC5)c4C)C3)sc2n1` (single isomer, unassigned) [Example 2-36], the IC50 is greater than 2000 nM.

Turning to `Nc1c(C(=O)N[C@H]2COc3cc(N4CC5CC(C4)N5)ccc3C2)sc2nc(F)ccc12` [Example 2-14, N-((3R)-7-(3,6-diazabicyclo[3.1.1]heptan-3-yl)chroman-3-yl)-3-amino-6-fluorothieno[2,3-b]pyridine-2-carboxamide], the half-maximal inhibitory concentration (IC50) lay within 200 to 2000 nM.

In the case of `Cc1ccc2c(N)c(C(=O)N[C@H]3COc4cc(N5CCNCC5)ccc4C3)sc2n1` (single isomer, unassigned) [Example 1-1], the IC50 fell in the range of 200 to 2000 nM.

Turning to `Cc1cnc2c(N)c(C(=O)N[C@H]3CCc4cc(N5CCNCC5)c(C)cc4C3)sc2n1` (single isomer, unassigned) [Example 2-34], the half-maximal inhibitory concentration (IC50) is greater than 2000 nM.

For the compound `Cc1cc(C)c2c(N)c(C(=O)N[C@H]3COc4cc(N5CC6CNCC(C5)C6(F)F)ccc4C3)sc2n1` [Example 2-19, 3-amino-N-((3R)-7-(9,9-difluoro-3,7-diazabicyclo[3.3.1]nonan-3-yl)chroman-3-yl)-4,6-dimethylthieno[2,3-b]pyridine-2-carboxamide], the IC50 was 1 to 50 nM.

For the compound `Cc1cc(C)c2c(N)c(C(=O)N[C@H]3COc4cc(N5CC6CNCC(C5)O6)ccc4C3)sc2n1` [Example 2-20, N-((3R)-7-(9-oxa-3,7-diazabicyclo[3.3.1]nonan-3-yl)chroman-3-yl)-3-amino-4,6-dimethylthieno[2,3-b]pyridine-2-carboxamide], the IC50 was 1 to 50 nM.

With `[2H]C([2H])([2H])O[C@H]1CN(c2ccc3c(c2)OC[C@H](NC(=O)c2sc4nc(C)ccc4c2N)C3)C[C@@H]1N` [Example 2-38, 3-amino-N-((R)-7-((3S,4S)-3-amino-4-(methoxy-d3)pyrrolidin-1-yl)chroman-3-yl)-6-methylthieno[2,3-b]pyridine-2-carboxamide], the IC50 was 200 to 2000 nM.

For the compound `Cc1cc(C(F)(F)F)c2c(N)c(C(=O)N[C@H]3COc4cc(N5CC6CNCC(C5)C6(F)F)ccc4C3)sc2n1` [Example 2-22, 3-amino-N-((3R)-7-(9,9-difluoro-3,7-diazabicyclo[3.3.1]nonan-3-yl)chroman-3-yl)-6-methyl-4-(trifluoromethyl)thieno[2,3-b]pyridine-2-carboxamide], the IC50 is 1 to 50 nM.

Turning to `Cc1ccc2c(N)c(C(=O)N[C@@H]3COc4cc(N5CCN[C@H](C)[C@@H]5C)ccc4C3)sc2n1` (single isomer, unassigned) [Example 1-10], the concentration for half-maximal inhibition (IC50) was 200 to 2000 nM.

Consider `Cc1ccc2c(N)c(C(=O)N[C@@H]3COc4cc(N5CC6CCCC(C5)N6)ccc4C3)sc2n1` (single isomer, unassigned) [Example 1-6], for which the half-maximal inhibitory concentration (IC50) is greater than 2000 nM.

In the case of `Nc1c(C(=O)N[C@@H]2COc3cc(N4CC5CCC(C4)N5)ccc3C2)sc2ncc(F)cc12` (single isomer, unassigned) [Example 1-18], the half-inhibitory concentration (IC50) was greater than 2000 nM.

For the compound `Nc1c(C(=O)N[C@H]2COc3cc(N4CC5CCC(C4)N5)ccc3C2)sc2ncc(F)cc12` (single isomer, unassigned) [Example 1-17], the IC50 fell in the range of 200 to 2000 nM.

As for `Cc1cnc2c(N)c(C(=O)N[C@H]3COc4cc(N5CC6CNCC(C5)O6)ccc4C3)sc2n1` [Example 2-13, N-((3R)-7-(9-oxa-3,7-diazabicyclo[3.3.1]nonan-3-yl)chroman-3-yl)-7-amino-3-methylthieno[2,3-b]pyrazine-6-carboxamide], the concentration for half-maximal inhibition (IC50) was 200 to 2000 nM.

`Cc1ccc2c(N)c(C(=O)N[C@@H]3COc4cc(N5CC6CCC(C5)N6)ccc4C3)sc2n1` (single isomer, unassigned) [Example 1-4]: the concentration for half-maximal inhibition (IC50) is greater than 2000 nM.

Consider `Cc1cnc2c(N)c(C(=O)N[C@H]3COc4cc(N5CC6CC(C5)N6)ccc4C3)sc2n1` [Example 2-11, N-((3R)-7-(3,6-diazabicyclo[3.1.1]heptan-3-yl)chroman-3-yl)-7-amino-3-methylthieno[2,3-b]pyrazine-6-carboxamide], for which the IC50 was in the range of 50 to 200 nM.

As for `Cc1ccc2c(N)c(C(=O)N[C@@H]3COc4cc(N5CC6CC(C5)N6)cc(F)c4C3)sc2n1` (single isomer, unassigned) [Example 1-41], the IC50 fell in the range of 50 to 200 nM.

With `Cc1ccc2c(N)c(C(=O)N[C@@H]3COc4cc(N5CCN[C@H](C)[C@H]5C)ccc4C3)sc2n1` (single isomer, unassigned) [Example 1-12], the IC50 is 1 to 50 nM.

Consider `Cc1ccc2c(N)c(C(=O)N[C@H]3COc4cc(N5CCNC[C@@H]5C)ccc4C3)sc2n1` [Example 2-4, 3-amino-6-methyl-N-((R)-7-((S)-2-methylpiperazin-1-yl)chroman-3-yl)thieno[2,3-b]pyridine-2-carboxamide], for which the concentration for half-maximal inhibition (IC50) fell in the range of 1 to 50 nM.

As for `Cc1ccc2c(N)c(C(=O)N[C@H]3COc4cc(N5CCN[C@@H](C)C5)ccc4C3)sc2n1` [Example 2-8, 3-amino-6-methyl-N-((R)-7-((S)-3-methylpiperazin-1-yl)chroman-3-yl)thieno[2,3-b]pyridine-2-carboxamide], the IC50 is 200 to 2000 nM.
